According to patent US20210244858A1, “SOFT TISSUE FILLER COMPOSITION WITH HYALURONIC ACID AND BENZYL ALCOHOL” (Prollenium Medical Technologies, Inc., priority 2018, published 2021):
Read-outs that look alike come from different tables or passages of the source.

Tests used:
[1] = format: physicochemical; conditions: for Benzyl alcohol mg/g (55° C.) / Lidocaine mg/g (45° C.): in REVANESSE dermal filler
Method: The benzyl alcohol product was held for 12 weeks at 55° C. which approximates 2 years shelf life; the amount of benzyl alcohol degraded by only 5.75%. In contrast, the amount of lidocaine degraded by 11.61% over 12 weeks at 45° C., which approximates to 1 year shelf life.

[2] = cited from earlier work
[3] = 0.05% to 5% solution; cited from earlier work
[4] = 5% solution, animal studies; cited from earlier work

Row | SMILES | stability compared with lidocaine [1] | Benzyl alcohol mg/g (55° C.) ([1]; 0 weeks) [mg/g] | Benzyl alcohol mg/g (55° C.) ([1]; 4 weeks) [mg/g] | Benzyl alcohol mg/g (55° C.) ([1]; 8 weeks) [mg/g] | amount degraded ([1]; 12 weeks, 8.7 mg/g) [%] | Benzyl alcohol mg/g (55° C.) ([1]; 12 weeks) [mg/g] | injection pain and anesthesia duration ([2]; in combination with lidocaine (1%)) | duration of anesthetic effect compared with lidocaine ([2]; in vivo) | injection pain compared with plain lidocaine ([2]; injection) | anesthetic effectiveness [3] | safety [4] | Lidocaine mg/g (45° C.) ([1]; 0 weeks) [mg/g] | Lidocaine mg/g (45° C.) ([1]; 4 weeks) [mg/g] | Lidocaine mg/g (45° C.) ([1]; 8 weeks) [mg/g] | amount degraded ([1]; 12 weeks, 3.1 mg/g) [%] | Lidocaine mg/g (45° C.) ([1]; 12 weeks) [mg/g]
1 | OCc1ccccc1 [Benzyl alcohol, benzyl alcohol] | better than lidocaine | 8.7 | 8.7 | 8.6 | 5.75 | 8.2 | reduces injection pain as well as anesthesia duration | shorter duration than lidocaine | significantly less painful | considered somewhat effect | deemed safe |  |  |  |  | 
2 | CCN(CC)CC(=O)Nc1c(C)cccc1C [Lidocaine, lidocaine, reference compound] |  |  |  |  |  |  |  |  |  |  |  | 3.1 | 2.9 | 2.82 | 11.61 | 2.74
